Values quoted from earlier work as cited in US11406602B2, “Substances for reducing occurrence of major cardiac events comprising red yeast rice extract and omega-3 polyunsaturated fatty acid or derivative thereof” (NORDIC NATURALS, INC., priority 2007, dated 2022).

Legend:
[1] = prior art description of lovastatin
patients = conditions: 20 mg/day for 24 weeks
[2] = 10, 20, and 40 mg/day

CC[C@H](C)C(=O)O[C@H]1C[C@@H](C)C=C2C=C[C@H](C)[C@H](CC[C@@H]3C[C@@H](O)CC(=O)O3)[C@H]21 [Lovastatin, lovastatin]
decrease in triglycerides (slight decreases): 5-10%
increase in high density lipoproteins (HDL) (slight to moderate increases): 10-20%
water solubility [1]: water insoluble
fall in total cholesterol (patients): 26%
fall in triglycerides (patients): 12%
reduction in LDL [2]: 21-32%
reduction in total cholesterol [2]: 16-24%
reduction in triglycerides ([2]; higher reduction at lower dosage): 10 to 6%
